This is an account of results in PMC10865860 (mBio, 2023).

Read-outs that look alike come from different tables or passages of the source. Where a SMILES comes first, the peptide text is derived from it. The star is where a group is joined. Cbz = O=C(OCc1ccccc1)*

Assay [1] deals with SARS-CoV-2 replicon. The conditions noted are these: cited from earlier work.
A further assay deals with T1, cathepsin D (Homo sapiens, UniProt P07339).
T1 construct: purchased Abcam
As to the kind of experiment: biochemical.

Assay [2] deals with SARS-CoV-2 pseudoviruses in cells expressing hACE2. As to the kind of experiment: microbe, parasite or virus in culture. Type of assay: cell-based. The conditions noted are these: Severe acute respiratory syndrome coronavirus 2, HEK-293T, read-out: EC50 Pseudovirus entry assay hACE2.
In a further assay the target is T2, neutrophil elastase (Homo sapiens, UniProt P08246).
T2 construct: purchased Sigma-Aldrich
T2 sequence (P08246 30-267): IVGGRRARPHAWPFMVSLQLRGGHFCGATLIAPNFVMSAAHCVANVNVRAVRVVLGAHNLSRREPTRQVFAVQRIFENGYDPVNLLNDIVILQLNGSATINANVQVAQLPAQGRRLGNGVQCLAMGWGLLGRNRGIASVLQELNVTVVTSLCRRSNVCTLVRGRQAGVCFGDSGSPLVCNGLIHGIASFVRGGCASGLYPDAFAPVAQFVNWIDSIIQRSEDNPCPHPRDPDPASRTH
As to the kind of experiment: biochemical.

In the next assay the target is T3, cathepsin L (Homo sapiens, UniProt P07711).
T3 construct: purchased AnaSpec
As to the kind of experiment: biochemical.

The next assay relates to chymotrypsin. Type of assay: biochemical, human.
For another assay, the target named is T4, cathepsin G (Homo sapiens, UniProt P08311).
T4 construct: purchased Novus Biological
T4 sequence (P08311 21-255): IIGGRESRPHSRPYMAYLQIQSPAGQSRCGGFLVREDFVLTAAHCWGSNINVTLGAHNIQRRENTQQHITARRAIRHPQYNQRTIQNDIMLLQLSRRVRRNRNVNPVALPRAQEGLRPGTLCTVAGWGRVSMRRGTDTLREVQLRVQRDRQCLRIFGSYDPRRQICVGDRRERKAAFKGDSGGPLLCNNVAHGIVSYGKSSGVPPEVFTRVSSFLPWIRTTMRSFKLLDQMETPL
As to the kind of experiment: biochemical.

In assay [3] the test system is SARS-CoV-2 pseudoviruses in cells expressing hACE2 plus TMPRSS2. Description: microbe, parasite or virus in culture. Type of assay: cell-based. The conditions noted are these: Severe acute respiratory syndrome coronavirus 2, HEK-293T, read-out: EC50 Pseudovirus entry assay hACE2+ TMPRSS2.
The target of the next assay is T5, cathepsin B (Homo sapiens, UniProt P07858).
T5 construct: purchased Abcam
Description: biochemical.

Assay [4] addresses T6, SARS-CoV-2 3CLpro (Severe acute respiratory syndrome coronavirus 2, UniProt P0DTD1). The conditions noted are these: read-out: IC50 SARS-CoV-2 (3CLpro); cited from earlier work.
Assay [5] deals with T7, MERS-CoV 3CLpro (Middle East respiratory syndrome-related coronavirus, UniProt K9N7C7). The conditions noted are these: read-out: IC50 MERS-CoV (3CLpro); cited from earlier work.
In the next assay the target is T8, thrombin (Homo sapiens, UniProt P00734).
T8 construct: purchased AnaSpec
As to the kind of experiment: biochemical.

For assay [6], the target named is T6, SARS-CoV-2 3CLpro. As to the kind of experiment: biochemical.
Assay [7] has as its system SARS-CoV-2 replicon. Description: microbe, parasite or virus in culture. Type of assay: cell-based. The conditions noted are these: Severe acute respiratory syndrome coronavirus 2, read-out: EC50 SARS-CoV-2 replicon. On the technique in general: In antiviral work, replicon cells carry a viral genome segment that copies itself.
Assay [8] has as its target T7, MERS-CoV 3CLpro. As to the kind of experiment: biochemical.

T1 sequence (P07339 65-412): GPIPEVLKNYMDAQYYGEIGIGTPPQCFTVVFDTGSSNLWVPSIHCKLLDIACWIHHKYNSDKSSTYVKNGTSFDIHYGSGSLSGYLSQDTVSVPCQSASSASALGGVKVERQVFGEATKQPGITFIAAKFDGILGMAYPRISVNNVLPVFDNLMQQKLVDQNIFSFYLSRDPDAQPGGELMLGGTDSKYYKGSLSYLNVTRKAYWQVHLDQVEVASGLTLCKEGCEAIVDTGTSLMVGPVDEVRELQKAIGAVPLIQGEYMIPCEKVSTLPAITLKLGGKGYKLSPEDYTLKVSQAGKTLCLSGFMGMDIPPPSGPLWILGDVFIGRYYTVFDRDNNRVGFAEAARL
T3 sequence (P07711 114-333): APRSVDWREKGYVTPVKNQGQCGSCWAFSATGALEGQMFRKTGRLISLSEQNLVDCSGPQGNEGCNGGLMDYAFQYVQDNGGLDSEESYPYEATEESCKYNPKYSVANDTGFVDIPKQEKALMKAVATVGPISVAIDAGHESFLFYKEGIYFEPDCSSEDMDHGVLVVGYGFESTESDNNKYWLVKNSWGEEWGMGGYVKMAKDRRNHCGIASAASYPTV
T7 sequence (K9N7C7 3248-3553 limits assumed): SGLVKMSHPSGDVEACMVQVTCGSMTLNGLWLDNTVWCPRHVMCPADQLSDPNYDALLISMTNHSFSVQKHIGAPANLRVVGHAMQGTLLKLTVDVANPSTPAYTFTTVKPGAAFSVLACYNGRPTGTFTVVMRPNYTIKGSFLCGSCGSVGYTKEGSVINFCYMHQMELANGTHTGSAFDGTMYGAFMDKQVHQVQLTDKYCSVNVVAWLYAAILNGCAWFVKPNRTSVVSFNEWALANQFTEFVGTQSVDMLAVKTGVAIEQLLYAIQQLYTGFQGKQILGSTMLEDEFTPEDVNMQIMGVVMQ

Broadly, the EC50 is the concentration that produces a half-maximal response. Broadly, the IC50 is the concentration that inhibits the measured activity by half. For the molecule `CC(C)CC(NC(=O)OCC1CC1c1cccc(F)c1)C(=O)NC(C=O)CC1CCNC1=O` (stereo not shown) [5c], the values for the concentration for a half-maximal effect (EC50) (with SARS-CoV-2 replicon [1]; in assay [2]; in assay [3]) were 12 nM, 60 ± 30 nM and above 50000 nM, respectively. Further, the 50% inhibitory concentration (IC50) at cathepsin D is above 50000 nM; on neutrophil elastase it was above 50000 nM; against cathepsin L it was 30 ± 10 nM; in the assay on chymotrypsin, above 50000 nM; on cathepsin G it was above 50000 nM; against cathepsin B, 240 ± 50 nM. Further, the IC50 on SARS-CoV-2 3CLpro [4] is 180 ± 30 nM; on MERS-CoV 3CLpro [5], 80 ± 30 nM; against thrombin, above 50000 nM.
`CC(C)CC(NC(=O)OCC1CC1c1cccc(F)c1)C(=O)NC(CC1CCNC1=O)C(O)S(=O)(=O)O` (stereo not shown) [5d]: the IC50 was above 50000 nM against cathepsin D; above 50000 nM on neutrophil elastase; 20 ± 20 nM on cathepsin L; above 50000 nM in the assay with chymotrypsin; above 50000 nM at cathepsin G; 230 ± 80 nM against cathepsin B. The half-inhibitory concentration (IC50) on SARS-CoV-2 3CLpro [4] was 190 ± 20 nM; at MERS-CoV 3CLpro [5], 70 ± 30 nM; on thrombin, above 50000 nM. Further, the EC50 is 50 ± 20 nM in [2] and above 50000 nM in assay [3].
For the molecule `COc1ccccc1C1CC1COC(=O)NC(CC(C)C)C(=O)NC(C=O)CC1CCNC1=O` (stereo not shown) [11c], the IC50 at cathepsin D was above 50000 nM; at neutrophil elastase, above 50000 nM; against cathepsin L it was 30 ± 10 nM; in the assay on chymotrypsin, above 50000 nM; on cathepsin G, above 50000 nM; on cathepsin B it was 310 ± 50 nM. Moreover, the IC50 is 140 ± 40 nM on SARS-CoV-2 3CLpro [4], 120 ± 110 nM on MERS-CoV 3CLpro [5] and above 50000 nM against thrombin. For the same molecule, the half-maximal effective concentration (EC50) in assay [2] was 130 ± 30 nM; in [3], above 50000 nM.
For the molecule `COc1ccccc1C1CC1COC(=O)NC(CC(C)C)C(=O)NC(CC1CCNC1=O)C(O)S(=O)(=O)O` (stereo not shown) [11d], the EC50 in the assay with SARS-CoV-2 replicon [1] was 12 nM; in [2], 120 ± 50 nM; in assay [3], above 50000 nM. Also, the IC50 is above 50000 nM against cathepsin D; above 50000 nM against neutrophil elastase; 20 ± 20 nM at cathepsin L; above 50000 nM in the assay with chymotrypsin; above 50000 nM against cathepsin G; 270 ± 60 nM on cathepsin B. For the same molecule, the results for the IC50 at SARS-CoV-2 3CLpro [4], at MERS-CoV 3CLpro [5] and at thrombin were 140 ± 50 nM, 70 ± 10 nM and above 50000 nM, respectively.
With `CC(C)[C@H](NC(=O)OCc1ccccc1)C(=O)N[C@H](C=O)Cc1ccccc1` [MDL28170] (Cbz-Val-Phe-aldehyde), the concentration for half-maximal inhibition (IC50) on SARS-CoV-2 3CLpro [6] and at MERS-CoV 3CLpro [8] was above 50000 nM throughout. Besides, the 50% effective concentration (EC50) was above 50000 nM in the assay with SARS-CoV-2 replicon [7], 10 ± 30 nM in assay [2] and above 50000 nM in assay [3].
For the molecule `N=C(N)c1ccc2cc(OC(=O)c3ccc(N=C(N)N)cc3)ccc2c1` [Nafamostat], the IC50 at SARS-CoV-2 3CLpro [6] and at MERS-CoV 3CLpro [8] was above 50000 nM each time. For the same molecule, the EC50 (in the assay with SARS-CoV-2 replicon [7]; in assay [2]) was above 50000 nM each time.
